Reference: US11945832B2, “Psilocybin and O-acetylpsilocin, salts and solid state forms thereof” (Terran Biosciences Inc., priority 2021, dated 2024)
In brackets after ≈: the same amount, converted by molar mass. Entries after “also recorded” stand apart in the source; their conditions may differ.

What was measured:
[1] = Dynamic vapor sorption (DVS) analysis, hygroscopicity; format: physicochemical; conditions: for solid form of post-DVS specimen (XRPD): after DVS 5-95-5% RH; for overall water uptake (DVS): 5-95% RH
Protocol: (§1) DVS analysis was carried out using a TA Instruments Q5000 Dynamic Vapor Sorption analyzer. The instrument was calibrated with standard weights and a sodium bromide standard for humidity. Approximately 10-25 mg of sample was loaded into a metal-coated quartz pan for analysis. The sample was analyzed at 25° C. with a maximum equilibration time of one hour in 10% relative humidity (RH) steps from 5 to 95% RH (adsorption cycle) and from 95 to 5% RH (desorption cycle). The movement from one step to the next occurred either after satisfying the equilibrium criterion of 0.01% weight change or, if the equilibrium criterion was not met, after one hour. The percent weight change values were calculated using Microsoft Excel®.
as §1, with “Dynamic Vapor Sorption (DVS)” for “DVS”, “is” for “was”, “is” for “were”, “Excel.” for “Excel®.”

[2] = Hygroscopicity test in relative humidity (RH) jars; format: physicochemical
Protocol: Solids deliquesced within approx. 1 hour of exposure to elevated relative humidity. The sample was capped and placed in a freezer for storage.

[3] = Estimated solubilities of psilocybin (solvent aliquot addition, visual inspection); format: physicochemical; conditions: room temperature
Text: Solubilities of psilocybin in a few solvents were estimated.

[4] = system: Psilocybin Induced Head Twitches in Mice; test: Psilocybin-induced head-twitch response in mice, 5-HT2A antagonist given i.v. after psilocybin; format: in vivo, C57BL/6J mice; conditions: for Result (suppression of psilocybin-induced head twitch): 5HT2A antagonist i.v. at T=7 min, summary of Examples 13-21; for effect on psilocybin-induced head twitch (summary of Examples 13-21): administered after psilocybin, compared to vehicle-treated mice, dose not given; for suppression of psilocybin-induced head-twitch response: monitored until 40 min
Text: The head-shake response is elicited by a wide variety of known hallucinogens such as LSD, psilocybin, psilocin, N,N-dimethyltryptamine (DMT), and mescaline as well as serotonin-releasing agents and direct 5-HT2 agonists. […] Later studies have confirmed 5-HT2A receptors are the primary, direct mediators of the response and that the headshake response in rats is essentially the same as head-twitches in mice, at least in regards to similarity in appearance and 5-HT2A receptor dependence.
Male C57BL/6J mice (approximately 25 g) were group housed. Animals were maintained under a 12 h light/dark cycle, at 23° C. with humidity controlled.
Psilocybin was formulated in saline at a concentration of 0.4 mg/mL to give a dose of 2 mg/kg when administered i.p. in a 5 mL/kg dosing volume.
(§2) At T=−60 min, C57BL/6J mice were individually housed into transparent observation cages with bedding removed and left to habituate. At T=−3 min, mice were placed into heated cages at 40° C. At T=0 h, groups of 3 mice were dosed intraperitoneally with psilocybin (2 mg/kg). Following dosing, mice were replaced into the heated cages and head-twitch responses continuously scored for 7 min. After 7 min, mice were intravenously dosed via the lateral tail vein with either vehicle 1 (saline) or volinanserin 1 mg/kg in 5 mL/kg dosing volumes. Mice were replaced into the observation cages and head twitch behavior were monitored until 40 min after agonist dosing. Cumulative head-twitches were measured every 2 minutes until 40 minutes after agonist dosing.
as §2, with “min. […]” for “min. After 7 min, mice were intravenously dosed via the lateral tail vein with either vehicle 1 (saline) or volinanserin 1 mg/kg in 5 mL/kg dosing volumes.”, “behavior was” for “behavior were”, “Cumulative head-twitch behavior was” for “Cumulative head-twitches were”
as §2, with “min. […]” for “min. After 7 min, mice were intravenously dosed via the lateral tail vein with either vehicle 1 (saline) or volinanserin 1 mg/kg in 5 mL/kg dosing volumes.”, “behavior was” for “behavior were”, “Cumulative head-twitch behavior was” for “Cumulative head-twitches were”
as §2, with “min. […]” for “min. After 7 min, mice were intravenously dosed via the lateral tail vein with either vehicle 1 (saline) or volinanserin 1 mg/kg in 5 mL/kg dosing volumes.”, “behavior was” for “behavior were”, “Cumulative head-twitch behavior was” for “Cumulative head-twitches were”
as §2, with “min. […]” for “min. After 7 min, mice were intravenously dosed via the lateral tail vein with either vehicle 1 (saline) or volinanserin 1 mg/kg in 5 mL/kg dosing volumes.”, “behavior was” for “behavior were”, “Cumulative head-twitch behavior was” for “Cumulative head-twitches were”

[5] = Estimated aqueous solubility of O-acetyl psilocin salts (aliquot addition method); conditions: bounds printed as 'Small particles present at ≤ x mg/mL'
Protocol: Whether dissolution had occurred was judged by visual inspection after addition of each solvent aliquot. […] Solubility numbers were calculated by dividing the weight of the sample by the total amount of solvent used to dissolve the sample. […] The solubility number is expressed as “greater than or equal to” if dissolution occurred on addition of the first solvent aliquot.

[6] = C57BL/6J mice, psilocybin 2 mg/kg i.p. at T=0, head twitches scored to 40 min
[7] = antagonist 1 mg/kg i.v. 7 min after psilocybin 2 mg/kg i.p.
[8] = antagonist 4 mg/kg i.v. 7 min after psilocybin 2 mg/kg i.p.

CC(=O)Oc1cccc2[nH]cc(CCN(C)C)c12.O=C(O)C(O)C(O)C(=O)O [L-tartrate, Form A]
hygroscopicity ([1]; 5-85% RH, DVS): non-hygroscopic
hydrate formation (DVS) ([1]; DVS, at high RH): resulting in hydrate
Water uptake ([1]; above 85% RH, DVS): ~6%
hygroscopicity ([1]; above 85% RH, DVS): hygroscopic

CC(=O)Oc1cccc2[nH]cc(CCN(C)C)c12.Cl [O-acetyl psilocin hydrochloride]
time to deliquescence ([2]; open vial in 75% RH jar): ≤ 1 h

CN(C)CCc1c[nH]c2cccc(OP(=O)(O)O)c12 [psilocybin]
solubility ([3]; organic solvent or mixture, thermodynamic from solid, 1,4-dioxane): < 1000 µg/mL
solubility ([3]; organic solvent or mixture, thermodynamic from solid, 2-propanol (2-PrOH)): < 1000 µg/mL
solubility ([3]; organic solvent or mixture, thermodynamic from solid, Acetone): < 1000 µg/mL
solubility ([3]; organic solvent or mixture, thermodynamic from solid, Acetonitrile (ACN)): < 1000 µg/mL
solubility ([3]; organic solvent or mixture, thermodynamic from solid, Dichloromethane (DCM)): < 1000 µg/mL
solubility ([3]; organic solvent or mixture, thermodynamic from solid, Ethanol (EtOH)): < 1000 µg/mL
solubility ([3]; organic solvent or mixture, thermodynamic from solid, Ethyl acetate (EtOAc)): < 1000 µg/mL
solubility ([3]; organic solvent or mixture, thermodynamic from solid, Methanol (MeOH)): 11000 µg/mL (≈ 38.7 mM)
solubility ([3]; organic solvent or mixture, thermodynamic from solid, Tetrahydrofuran (THF)): < 1000 µg/mL
solubility ([3]; thermodynamic from solid, Water): 4000 µg/mL (≈ 14.1 mM)
solid form of post-DVS specimen (XRPD) [1]: converted to a hydrate Form B; also recorded: Crystalline Form B (hydrate)

Cc1nc2sccn2c(=O)c1CCN1CCC(=C(c2ccc(F)cc2)c2ccc(F)cc2)CC1 [ritanserin]
Result (suppression of psilocybin-induced head twitch) [4, 6]: Full suppression of head twitch
effect on psilocybin-induced head twitch (summary of Examples 13-21) [4]: full ending
suppression of psilocybin-induced head-twitch response [4, 7]: completely suppressed

COc1cccc([C@H](O)C2CCN(CCc3ccc(F)cc3)CC2)c1OC [volinanserin]
Result (suppression of psilocybin-induced head twitch) [4, 6]: Full suppression of head twitch
effect on psilocybin-induced head twitch (summary of Examples 13-21) [4]: full ending
suppression of psilocybin-induced head-twitch response [4, 7]: completely suppressed

N#Cc1c[nH]c2c(C(=O)N3CCN(CCc4ccc(F)cc4)CC3)cccc12 [pruvanserin]
Result (suppression of psilocybin-induced head twitch) [4, 6]: Full suppression of head twitch
effect on psilocybin-induced head twitch (summary of Examples 13-21) [4]: full ending
suppression of psilocybin-induced head-twitch response [4, 7]: completely suppressed

COc1ccc(NC(=O)Nc2ccc(F)cc2F)cc1-c1c(Br)cnn1C [nelotanserin]
Result (suppression of psilocybin-induced head twitch) [4, 6]: Partial suppression of head twitch,
Result (suppression of psilocybin-induced head twitch) at high dose ([4]; C57BL/6J mice, psilocybin 2 mg/kg i.p. at T=0, antagonist at high dose (nelotanserin 4 mg/kg i.v.) at T=7 min, head twitches scored to 40 min): full suppression at high dose
effect on psilocybin-induced head twitch (summary of Examples 13-21) [4]: partial suppression
suppression of psilocybin-induced head-twitch response [4, 7]: partially suppressed
suppression of psilocybin-induced head-twitch response [4, 8]: completely suppressed; also recorded: completed suppressed

Maleate
Water solubility [5]: >50000 µg/mL

CC(=O)Oc1cccc2[nH]cc(CCN(C)C)c12.O=C(O)/C=C/C(=O)O [O-acetylpsilocin-fumarate Form A, O-acetylpsilocin-fumarate]
overall water uptake (DVS) [1]: approx. 0.1%
hygroscopicity (DVS), in words ([1]; whole RH range (5-95% RH)): non-hygroscopic

CC(=O)Oc1cccc2[nH]cc(CCN(C)C)c12.O=C(O)C(O)C(O)C(=O)O [L-tartrate salt, Form A, O-Acetyl Psilocin Tartrate]
hygroscopicity (DVS), in words ([1]; 5-85% RH): non-hygroscopic
hydrate formation on DVS ([1]; above 85% RH): consistent with hydrate formation
water uptake (DVS) ([1]; above 85% RH): approx. 6%
hydrate formation on DVS ([1]; above 85% RH, listed as Tartrate A): possible hydrate formation
solid form of post-DVS specimen (XRPD) [1]: consistent with Form A by XRPD analysis and exhibited additional diffraction peaks

O=c1[nH]c2ccccc2n1CCN1CCN(c2cccc(C(F)(F)F)c2)CC1 [flibanserin]
Result (suppression of psilocybin-induced head twitch) [4, 6]: Partial suppression of head twitch
effect on psilocybin-induced head twitch (summary of Examples 13-21) [4]: partial suppression
suppression of psilocybin-induced head-twitch response [4, 7]: partially suppressed
suppression of psilocybin-induced head-twitch response [4, 8]: partially suppressed

CC(=O)Oc1cccc2[nH]cc(CCN(C)C)c12.CS(=O)(=O)O [mesylate salt, Form A, O-Acetyl Psilocin Mesylate]
hygroscopicity (DVS), in words ([1]; 5-55% RH): non-hygroscopic
water uptake (DVS) ([1]; above 55% RH): 40%
solid form of post-DVS specimen (XRPD) [1]: liquid

CC(=O)Oc1cccc2[nH]cc(CCN(C)C)c12.O=C(O)C[C@H](O)C(=O)O [L-malate salt, Form B, O-Acetyl Psilocin Malate]
hygroscopicity (DVS), in words ([1]; 5-85% RH): non-hygroscopic
hydrate formation on DVS ([1]; above 85% RH): no hydrate formation occurred
hydrate formation on DVS ([1]; above 85% RH, listed as Malate B): possible hydrate formation
water uptake (DVS) ([1]; above 85% RH, unit not given): approx. 4.500
solid form of post-DVS specimen (XRPD) [1]: consistent with Form B

O=C(c1ccc(F)cc1)C1CCN(CCn2c(=O)[nH]c3ccccc3c2=O)CC1 [ketanserin]
suppression of psilocybin-induced head-twitch response ([4]; antagonist 2 mg/kg i.v. 7 min after psilocybin 2 mg/kg i.p.): completely suppressed

CC(=O)Oc1cccc2[nH]cc(CCN(C)C)c12.O=C(O)/C=C\C(=O)O [maleate salt, Form A, O-acetyl psilocin maleate]
overall water uptake (DVS) [1]: approx. 0.8%
solid form of post-DVS specimen (XRPD) [1]: consistent with Form A
hygroscopicity (DVS), in words ([1]; whole RH range (5-95% RH)): non-hygroscopic
hygroscopicity (DVS), in words ([1]; whole RH range (5-95% RH), listed as maleate salt): minimal water sorption

CC(=O)Oc1cccc2[nH]cc(CCN(C)C)c12.O=P(O)(O)O [phosphate salt (Forms A+B), O-acetyl psilocin phosphate]
hygroscopicity by RH jars, in words ([2]; RH jars): low
